These results are taken from US7569229B2, “Monocyte locomotion inhibitory factor” (Center for Blood Research, Inc., priority 1998, dated 2009).

In series [1] the test system is human peripheral blood MP. The series is described as follows: Inhibition of MP chemotaxis towards zymosan activated serum in double-filter Boyden chambers. Format: cell-based. As to conditions: Boyden chamber; native MLIF and construct in similar concentrations, comparable to each other; n=8 for each group; FIG. 3C. On the procedure: (§1) (b) Preparation of cells. MP (95±2%) and neutrophils (95±2%) were obtained from the peripheral blood of fasting, non-smoking individual donors, using Ficoll-Paque centrifugation and further enrichment of MP by nylon wool adherence. Cell viability was established (≧94%) before and after the experiments by trypan blue dye exclusion.
(§2) (c) MLIF activity. In vitro MLIF activity was assessed either by the inhibition of MP chemotaxis towards zymosan (Sigma) activated serum in double-filter (upper filter 5.0 μm pore size (Nuclepore), lower cell-impermeable filter 8.0 μm pore size (Sartorius)) Boyden chambers, or by the inhibition of MP or neutrophil, Luminol™ (Eastman Kodak) enhanced chemiluminescence after opsonized zymosan particle ingestion, measured in Biorbit 1250 chemiluminometer (LKB) (n>6). In vivo MLIF activity was measured by its capacity to inhibit DNCB (1-chloro-2-4 dinitrobenzene) contact hypersensitivity reactions in individually-caged Harley short hair adult guinea pigs previously (14 days) sensitized with a vesicant DNCB dose (10 mg/ml acetone olive oil (4:1) soaked 5 mm diameter Whatman #2 filter paper disks). […] Disks were removed after 24 h, and redness-induration measured blindly a day later. […]
(§3) In vitro activity of native MLIF and its synthetic custom construct is measured. […]

In series [2] the test system is human peripheral blood MP. As to the kind of experiment: Inhibition of Luminol enhanced chemiluminescence (respiratory burst) in opsonized zymosan activated MP. Conditions: measured as mV/10^6 cells over a 29-30 minute period; six experiments; comparing experimental conditions, except 1 vs 10 μg of construct; FIG. 3A. In kind it is cell-based. On the procedure:
as §1, §2, §3

Series [3] deals with human peripheral blood neutrophils. As to the kind of experiment: Inhibition of Luminol enhanced chemiluminescence (respiratory burst) in opsonized zymosan activated neutrophils. Format: cell-based. As to conditions: measured as mV/10^6 cells over a 29-30 minute period; six experiments; comparing experimental conditions; FIG. 3B. On the procedure:
as §1, §2, §3

Series [4] has as its system DNCB contact hypersensitivity reactions in guinea pigs. The series is described as follows: Inhibition of DNCB contact hypersensitivity skin reaction. In kind it is in vivo, guinea pig. Conditions: for Histology of inhibited DNCB reactions: biopsies, compared to normal, non-interfered DNCB reactions; for DNCB skin reaction (mm diameter, or positive/negative with cut-off 5 mm) compared to PBS or virgin axenic medium control: intradermal injection 0.05 ml, native MLIF 8 μg/ml, custom construct 1, 10 or 100 μg/ml, comparable among them, FIG. 4. The protocol: (c) MLIF activity. In vitro MLIF activity was assessed either by the inhibition of MP chemotaxis towards zymosan (Sigma) activated serum in double-filter (upper filter 5.0 μm pore size (Nuclepore), lower cell-impermeable filter 8.0 μm pore size (Sartorius)) Boyden chambers, or by the inhibition of MP or neutrophil, Luminol™ (Eastman Kodak) enhanced chemiluminescence after opsonized zymosan particle ingestion, measured in Biorbit 1250 chemiluminometer (LKB) (n>6). In vivo MLIF activity was measured by its capacity to inhibit DNCB (1-chloro-2-4 dinitrobenzene) contact hypersensitivity reactions in individually-caged Harley short hair adult guinea pigs previously (14 days) sensitized with a vesicant DNCB dose (10 mg/ml acetone olive oil (4:1) soaked 5 mm diameter Whatman #2 filter paper disks). Intradermal injections of 0.05 ml of either native MLIF (8 μg/ml), MLIF custom construct (0.001-100 μg/ml), or pyrogen free phosphate buffered saline pH 7.4, were applied just beneath and simultaneous to the application of the eliciting dose of DNCB (0.05 mg/ml soaked paper disks). Disks were removed after 24 h, and redness-induration measured blindly a day later. Biopsies were obtained for histological evaluation in selected samples. The animals were not sacrificed.
(f) Statistical analysis. Results of in vitro MLIF activity were analyzed by non-parametric Mann-Whitney or Kruskall-Wallis analysis of variance test, and in vivo activity results by Student's t and Fisher's exact tests.
The reaction is measured in mm diameter against the eliciting dose, or as positive or negative reactions of the same with a cut-off criterium of 5 mm in diameter.

Series [5] deals with human mononuclear phagocytes. As to the kind of experiment: Cytoplasmic cyclic AMP in human mononuclear phagocytes. Format: cell-based. Conditions: interaction through a receptor on human mononuclear phagocytes.
For series [6], the system named is polymorphonuclear eosinophils. The series is described as follows: Effect on eosinophils (locomotion or metabolism). As to conditions: locomotion or metabolism of polymorphonuclear eosinophils. In kind it is cell-based.

Consider “M - Q - C - N - S (MQCNS; listed as Entamoeba histolytica) [native MLIF]”, for which the “Human peripheral blood MP chemotaxis compared to the normal chemotactic runs (i.e., 100%)” value in series [1] is “significantly lower (p<0.01)”. The “Areas under the curve of chemiluminescence, MP” value in series [2] is recorded as “significantly (p<0.01) different”. For the same substance, the “Areas under the curve of chemiluminescence, neutrophils” value in series [3] is “significantly (p<0.01) different”. Moreover, in series [4], the “Histology of inhibited DNCB reactions” value is listed as “scarce mononuclear perivascular infiltrate” and the “DNCB skin reaction (mm diameter, or positive/negative with cut-off 5 mm) compared to PBS or virgin axenic medium control” value is on record as “significantly different (p<0.001)”. For the same substance, the “Cytoplasmic mediator cyclic AMP” value in series [5] is recorded as “increase”. For the same substance, in series [6], the “Effect on other cells, such as eosinophils” value was “does not affect”. In addition, the Storage stability entry (at −70° C.) is “storable”. Where the note is “incubation at 56° C.”, the Heat stability result is listed as “heat stable”.
For the substance MQCNS [custom construct], the “Human peripheral blood MP chemotaxis compared to the normal chemotactic runs (i.e., 100%)” value in series [1] is given as “significantly lower (p<0.01)”. Besides, in series [2], the “Areas under the curve of chemiluminescence, MP” value is “significantly (p<0.01) different”. In series [3], the “Areas under the curve of chemiluminescence, neutrophils” value was “significantly (p<0.01) different”. Also, in series [4], the “Histology of inhibited DNCB reactions” value is given as “scarce mononuclear perivascular infiltrate” and the “DNCB skin reaction (mm diameter, or positive/negative with cut-off 5 mm) compared to PBS or virgin axenic medium control” value is reported as “significantly different (p<0.001)”.
